The values below are quoted from earlier work in the CATMoS acute toxicity set (Mansouri et al. 2021).

“And” between values parts separate entries of the source, which are not always exact repeats. Equal entries are not always repeated.

The data set can be described thus: rat acute oral toxicity. The note with it: in vivo.
For the compound `CC(N)CNCCCO` (configuration not stated), the 50% lethal dose (LD50) is 5660 mg/kg. For the compound `CCCN1C(=O)C2C3C=C(C(O)(c4ccccc4)c4ccccn4)C(C3=C(c3ccccc3)c3ccccn3)C2C1=O` (configuration not stated), the LD50 was 34.5 mg/kg.

As to `OCC(O)Oc1ccc(Cl)cc1Cl` (configuration not stated), the LD50 was 1070 mg/kg.

For `CNC1(c2ccccc2Cl)CCCCC1=O` (configuration not stated), the 50% lethal dose (LD50) was 447 mg/kg. For `Nc1ccc(Cl)cc1[N+](=O)[O-]`, the LD50 was 400 mg/kg. On to `O=C1c2cc(Cl)ccc2OC2CCON12` (configuration not stated), for which the LD50 was 1550 mg/kg. On to `O=c1cc[nH]c(=O)o1`, for which the median lethal dose (LD50) is 850 mg/kg. `CN(CC#N)N=O`: the 50% lethal dose (LD50) was 45 mg/kg. Turning to `Clc1ccc(-c2cccc(Cl)c2Cl)c(Cl)c1`, the 50% lethal dose (LD50) was 4250 mg/kg. Take `O=S1c2ccccc2N(CCCN2CCN(CCO)CC2)c2cc(Cl)ccc21` (configuration not stated): the LD50 was 1000 mg/kg. With `Cc1ccc(-c2nc3n(c2C=NNC(=O)CN(C)C)CCS3)cc1`, the median lethal dose (LD50) was 800 mg/kg. Take `ClCc1cccc(Oc2ccccc2)c1`: the LD50 was 1220 mg/kg. As to `C1=CCCCC1`, the 50% lethal dose (LD50) was 1950 mg/kg. On to `CCCCCCCCCCCCCCCCOC(=O)C1CC1`, for which the LD50 is 12200 mg/kg. `CCOc1ccc([N+](=O)[O-])cc1`: the LD50 is 3300 mg/kg. On to `COC(=O)C1=C(C)NC(C)=C(C(=O)OCCN(C)Cc2ccccc2)C1c1cccc([N+](=O)[O-])c1` (configuration not stated), for which the 50% lethal dose (LD50) was 184 mg/kg and 320 mg/kg. Turning to `CC(CCc1ccc(O)cc1)NCCc1ccc(O)c(O)c1` (configuration not stated), the median lethal dose (LD50) is 2300 mg/kg. As for `CC(C)(C)CC(C)(C)SSSSCC(C)(CC(C)(C)C)SSSSC(C)(C)CC(C)(C)C` (configuration not stated), the LD50 was 3640 mg/kg. On to `CCOP(=O)(OCC)SCc1ccccc1`, for which the LD50 was 660 mg/kg.

For the compound `c1ccc(Cc2ccccc2)cc1`, the LD50 is 2250 mg/kg. For `C=CCN1CCc2nc(N)sc2CC1`, the LD50 was 403 mg/kg. As to `COC(=O)CCC[N+](C)(C)C`, the median lethal dose (LD50) was 478 mg/kg. `CC(Cl)COP(=O)(OCC(C)Cl)Oc1ccc([N+](=O)[O-])cc1` (configuration not stated): the LD50 was 173 mg/kg. As for `COC1C(O)CC(=O)OC(C)CC=CC=CC(OC2CCC(N(C)C)C(C)O2)C(C)CC(CC=O)C1OC1OC(C)C(OC2CC(C)(O)C(O)C(C)O2)C(N(C)C)C1O` (configuration not stated), the median lethal dose (LD50) is 4650 mg/kg. As to `CN1CCc2ccccc21`, the LD50 is 1250 mg/kg.

With `CCOP(=S)(OCC)ON1C(=O)c2cccc3cccc(c23)C1=O`, the LD50 is 500 mg/kg. `COc1ccc2c(c1)CCC(c1ccccc1)=C2c1ccc(OCCN2CCCC2)cc1`: the median lethal dose (LD50) was 302 mg/kg. Turning to `COCCOC(=O)CC#N`, the LD50 was 4300 mg/kg. Turning to `CCCCCCCCCCCCOC(=O)CS(=O)(=O)O`, the 50% lethal dose (LD50) was 700 mg/kg. Consider `Cc1ccc(N=CN(C)SN(C)C=Nc2ccc(C)cc2C)c(C)c1`, for which the median lethal dose (LD50) is 300 mg/kg. On to `Nc1ccc(Oc2ccc(S(=O)(=O)c3ccc(Oc4ccc(N)cc4)cc3)cc2)cc1`, for which the median lethal dose (LD50) is 220 mg/kg. Consider `COc1ccc(CC2NCCc3cc(OC)c(OC)cc32)cc1OC` (configuration not stated), for which the median lethal dose (LD50) is 700 mg/kg. With `CN(C)CCC=C1c2ccccc2C(C)(C)c2ccccc21`, the LD50 is 170 mg/kg. In the case of `O=S(=O)(c1ccccc1)c1ccc(Cl)cc1`, the LD50 is 1400 mg/kg.

As to `FC(F)(F)c1cccc(-n2nc(OCCCN3CCCCCC3)c3cccnc32)c1`, the median lethal dose (LD50) is 780 mg/kg. For the compound `CCCCCCCc1ccc(C)cc1O`, the LD50 was 3320 mg/kg. Regarding `C=C1C(=CC=C2CCCC3(C)C2CCC3C(C)CCCC(C)C)CC(O)CC1O` (configuration not stated), the 50% lethal dose (LD50) was 340 mg/kg.

For `CC(CC1c2ccccc2CCc2ccccc21)CN(C)C` (configuration not stated), the LD50 is 700 mg/kg. On to `O=S(=O)(NC(O)=NC1CCCCC1)c1ccc(Cl)cc1`, for which the 50% lethal dose (LD50) is 1520 mg/kg. Consider `Cc1ccc(C(C)C=O)cc1` (configuration not stated), for which the 50% lethal dose (LD50) was 3500 mg/kg. With `COc1ccc(C)cc1N`, the LD50 is 1450 mg/kg. Turning to `CON(C)C(=O)/C=C(\C)OP(=O)(OC)OC`, the 50% lethal dose (LD50) was 2 mg/kg. With `Cc1cc(C2(c3ccc(O)c(C)c3)C(=O)Nc3ccccc32)ccc1O`, the 50% lethal dose (LD50) is 520 mg/kg.

In the case of `CCN=c1nc(Cl)[nH]c(=NC(C)CC)[nH]1` (configuration not stated), the median lethal dose (LD50) is 3000 mg/kg. Take `CC(C)Oc1cc(-n2nc(C(C)(C)C)oc2=O)c(Cl)cc1Cl`: the LD50 is 3500 mg/kg. On to `N#CSc1cccc(C(=O)O)c1`, for which the LD50 is 73 mg/kg. As to `Clc1ccc(SCOC(Cn2ccnc2)c2ccc(Cl)cc2Cl)cc1` (configuration not stated), the 50% lethal dose (LD50) was 3850 mg/kg. In the case of `C=CCNC(=O)ON=C1SCOC1C` (configuration not stated), the median lethal dose (LD50) is 453 mg/kg.

With `CC[N+](CC)(CC)CCC(O)(c1ccccc1)C1CCCCC1` (configuration not stated), the LD50 is 1100 mg/kg.

For `CC(C)N1CCCC1=O`, the median lethal dose (LD50) is 2900 mg/kg.

`CC(=O)O[C@]1(C(C)=O)CC[C@H]2[C@@H]3C=C(Cl)C4=CC(=O)CC[C@]4(C)[C@H]3CC[C@@]21C`: the LD50 was 6400 mg/kg. For the compound `COc1c(Cl)ccc(Cl)c1C(=O)O`, the median lethal dose (LD50) is 6760 mg/kg and 2630 mg/kg. `Oc1cccc(Oc2ccccc2)c1`: the median lethal dose (LD50) is 1210 mg/kg. For the compound `O=C(Cn1ccnc1)c1ccc2c(c1)Cc1ccccc1-2`, the LD50 was 4550 mg/kg.

Turning to `C=COC(=O)C=CC`, the LD50 was 6500 mg/kg. For the compound `CCOC(=O)C1=C(COCCOCCN)NC(C)=C(C(=O)OC)[C@@H]1c1cccc(Cl)c1Cl`, the 50% lethal dose (LD50) is 136 mg/kg. Regarding `CCOP(=O)(OCC)Oc1ccc2c(C)c(Cl)c(=O)oc2c1`, the LD50 is 10 mg/kg. With `OCCOCCN1CCN(C(c2ccccc2)c2ccccc2)CC1`, the LD50 is 840 mg/kg. Take `O=C(O)CF`: the median lethal dose (LD50) is 4.68 mg/kg. Consider `OC1(c2ccccc2)c2cc(F)ccc2C2=NCCN21` (configuration not stated), for which the LD50 was 40 mg/kg. For `CCN(CC)C(=O)c1nnn(-c2ccc(N)cc2)c1C`, the 50% lethal dose (LD50) is 494 mg/kg. Regarding `O=C1C=CCCC1`, the LD50 was 220 mg/kg.

The LD50 is the dose expected to kill half of the subjects tested.
